≈ marks a conversion by molar mass, not a printed value.
How the values were obtained:
[1] = system: Mycobacterium tuberculosis; test: Antimycobacterial activity against drug-resistant Mycobacterium tuberculosis; assay type: functional
[2] = system: Mycobacterium tuberculosis; test: Antimycobacterial activity against extensively drug-resistant Mycobacterium tuberculosis; assay type: functional

SMILES	MIC [1] [µg/mL]	also measured
CCNC(=O)Nc1nc2nc(-c3cnc(C(C)(C)O)nc3)c(F)c([C@H]3CCCO3)c2[nH]1	0.08 (≈ 0.186 µM)	
Cc1cc(/C=C/c2ccc3cc(N(C)C)ccc3[n+]2C)c(C)n1-c1ccccc1.Cc1cc(/C=C/c2ccc3cc(N(C)C)ccc3[n+]2C)c(C)n1-c1ccccc1.O=C(O)c1cc2ccccc2c(Cc2c(O)c(C(=O)O)cc3ccccc23)c1O		MIC99 [1]: 1.55 µg/mL
O=[N+]([O-])c1cn2c(n1)OC[C@@H](OCc1ccc(OC(F)(F)F)cc1)C2 [PRETOMANID]	0.03 (≈ 0.0835 µM)	
C[C@@H](O)[C@H]1C(=O)N2C(C(=O)O)=C(SC3CN(C4=NCCS4)C3)[C@H](C)[C@H]12 [TEBIPENEM]		MIC [2]: 0.3 µM (≈ 0.115 µg/mL)

— ChEMBL document CHEMBL5126519, “Tuberculosis drug discovery: Progression and future interventions in the wake of emerging resistance” (Eur J Med Chem, 2022)
